# Test results: patent US9255295B2, “Method for evaluating the sensitizing potential of a test compound” (IMMUNOSEARCH, priority 2010, dated 2016)
# Like-named read-outs stand apart in the source and are kept apart here.
# Test system: ARE gene family (AKR1B10, AKR1C1, AKR1C2, CYP1B1, FTH1P, FTL, G6PD, GCLM, NQO2, SLC7A11, TXNRD1, UGT1A1, UGT1A9, YWHAZ, CD36, CYP1A1, GCLC, HMOX1, NQO1, PSME2 …)
# Conditions: human
compound,measurement,setting,value
Oc1ccc(O)cc1 [Hydroquinone],AHR expression compared to control,"15 min, 0.1 %",0.8
same,ARE >1.3 (NUMBER OF GENES),"15 min, 0.1 %",5
same,GCLM expression compared to control,"15 min, 0.1 %",0.7
same,NQO2 expression compared to control,"15 min, 0.1 %",0.9
same,SLC7A11 expression compared to control,"15 min, 0.1 %",1.3
same,TOTAL ARE (NUMBER OF GENES),"15 min, 0.1 %",5
same,UGT1A9 expression compared to control,"15 min, 0.1 %",0.8
same,AHR expression compared to control,"15 min, 1 %",0.6
same,ARE >1.3 (NUMBER OF GENES),"15 min, 1 %",9
same,GCLM expression compared to control,"15 min, 1 %",1.8
same,NQO2 expression compared to control,"15 min, 1 %",1.4
same,SLC7A11 expression compared to control,"15 min, 1 %",1.5
same,TOTAL ARE (NUMBER OF GENES),"15 min, 1 %",9
same,UGT1A9 expression compared to control,"15 min, 1 %",1.5
same,AHR expression compared to control,"15 min, 10 %",0.6
same,ARE >1.3 (NUMBER OF GENES),"15 min, 10 %",13
same,GCLM expression compared to control,"15 min, 10 %",2.0
same,NQO2 expression compared to control,"15 min, 10 %",1.5
same,SLC7A11 expression compared to control,"15 min, 10 %",1.6
same,TOTAL ARE (NUMBER OF GENES),"15 min, 10 %",13
same,UGT1A9 expression compared to control,"15 min, 10 %",1.3
same,ARE >1.3 (NUMBER OF GENES),"15 min, 50 %",15
same,TOTAL ARE (NUMBER OF GENES),"15 min, 50 %",15
same,AKR1B10 expression compared to control,"6 h, 0.1 %",0.9
same,AKR1C1 expression compared to control,"6 h, 0.1 %",1.2
same,AKR1C2 expression compared to control,"6 h, 0.1 %",0.7
same,CD36 expression compared to control,"6 h, 0.1 %",0.7
same,CYP1A1 expression compared to control,"6 h, 0.1 %",8.0
same,CYP1B1 expression compared to control,"6 h, 0.1 %",1.8
same,FTH1P expression compared to control,"6 h, 0.1 %",1.2
same,FTL expression compared to control,"6 h, 0.1 %",1.5
same,GCLC expression compared to control,"6 h, 0.1 %",1.3
same,HMOX1 expression compared to control,"6 h, 0.1 %",1.1
same,NQO1 expression compared to control,"6 h, 0.1 %",1.2
same,S100A8 expression compared to control,"6 h, 0.1 %",1.1
same,TXNRD1 expression compared to control,"6 h, 0.1 %",2.3
same,UGT1A1 expression compared to control,"6 h, 0.1 %",1.7
same,AKR1B10 expression compared to control,"6 h, 1 %",1.0
same,AKR1C1 expression compared to control,"6 h, 1 %",2.0
same,AKR1C2 expression compared to control,"6 h, 1 %",1.3
same,CD36 expression compared to control,"6 h, 1 %",0.7
same,CYP1A1 expression compared to control,"6 h, 1 %",15.4
same,CYP1B1 expression compared to control,"6 h, 1 %",7.1
same,FTH1P expression compared to control,"6 h, 1 %",1.3
same,FTL expression compared to control,"6 h, 1 %",1.5
same,GCLC expression compared to control,"6 h, 1 %",1.3
same,HMOX1 expression compared to control,"6 h, 1 %",1.0
same,NQO1 expression compared to control,"6 h, 1 %",1.3
same,S100A8 expression compared to control,"6 h, 1 %",1.4
same,TXNRD1 expression compared to control,"6 h, 1 %",2.1
same,UGT1A1 expression compared to control,"6 h, 1 %",1.4
same,AKR1B10 expression compared to control,"6 h, 10 %",1.0
same,AKR1C1 expression compared to control,"6 h, 10 %",2.6
same,AKR1C2 expression compared to control,"6 h, 10 %",1.8
same,CD36 expression compared to control,"6 h, 10 %",0.7
same,CYP1A1 expression compared to control,"6 h, 10 %",33.2
same,CYP1B1 expression compared to control,"6 h, 10 %",17.1
same,FTH1P expression compared to control,"6 h, 10 %",1.4
same,FTL expression compared to control,"6 h, 10 %",1.9
same,GCLC expression compared to control,"6 h, 10 %",1.5
same,HMOX1 expression compared to control,"6 h, 10 %",1.2
same,NQO1 expression compared to control,"6 h, 10 %",1.5
same,S100A8 expression compared to control,"6 h, 10 %",1.4
same,TXNRD1 expression compared to control,"6 h, 10 %",2.6
same,UGT1A1 expression compared to control,"6 h, 10 %",1.5
same,AHR expression compared to control,"6 h, 50 %",0.9
same,AKR1B10 expression compared to control,"6 h, 50 %",1.1
same,AKR1C1 expression compared to control,"6 h, 50 %",3.5
same,AKR1C2 expression compared to control,"6 h, 50 %",3.7
same,CD36 expression compared to control,"6 h, 50 %",0.8
same,CYP1A1 expression compared to control,"6 h, 50 %",57.8
same,CYP1B1 expression compared to control,"6 h, 50 %",49.5
same,FTH1P expression compared to control,"6 h, 50 %",2.1
same,FTL expression compared to control,"6 h, 50 %",3.5
same,GCLC expression compared to control,"6 h, 50 %",2.4
same,GCLM expression compared to control,"6 h, 50 %",3.8
same,HMOX1 expression compared to control,"6 h, 50 %",3.5
same,NQO1 expression compared to control,"6 h, 50 %",2.8
same,NQO2 expression compared to control,"6 h, 50 %",2.0
same,S100A8 expression compared to control,"6 h, 50 %",1.4
same,SLC7A11 expression compared to control,"6 h, 50 %",5.4
same,TXNRD1 expression compared to control,"6 h, 50 %",7.9
same,UGT1A1 expression compared to control,"6 h, 50 %",1.9
same,UGT1A9 expression compared to control,"6 h, 50 %",1.7
